# Target: CDK2/Cyclin E1 (Homo sapiens, UniProt P24941)
# Assay: CDK2/Cyclin E1 Caliper LabChip EZ Reader mobility shift assay
# Assay type: biochemical
# Design: purchased Eurofins 14-475
# Details: read-out: Caliper Assay (CDK2/CCNE1): IC50
# How it was run: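 Substrate-to-product conversion of fluorescent peptide (1.5 μM final) read by capillary electrophoresis after 100 min reaction, EDTA-quenched. Enzyme (2.5 nM final) and ATP (100 μM final) were preincubated 30 min with inhibitor dilutions first. % activity vs concentration fitted four-parameter for IC50.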
row,IC50 [nM],Structure (SMILES)
1,100 to 1000,"CNC(=O)[C@@H](NC(=O)[C@@H]1CN(C(=O)c2cncs2)CC12CN(C(=O)[C@H]1CC1(C)C)C2)[C@@H](C)OCc1ccccc1 [I-24A, (S)—N-((2S,3R)-3-(benzyloxy)-1-(methylamino)-1-oxobutan-2-yl)-2-((S)-2,2-dimethylcyclopropane-1-carbonyl)-6-(thiazole-5-carbonyl)-2,6-diazaspiro[3.4]octane-8-carboxamide]"
2,10 to 100,"C[C@@H](OCC1CCOCC1)[C@@H](COC1CCC(F)(F)CC1)NC(=O)[C@@H]1CN(C(=O)c2cncs2)CC12CN(C(=O)C(C)(C)C1CC1)C2 [I-333, (S)-2-(2-cyclopropyl-2-methylpropanoyl)-N-((2R,3R)-1-((4,4-difluorocyclohexyl)oxy)-3-((tetrahydro-2H-pyran-4-yl)methoxy)butan-2-yl)-6-(thiazole-5-carbonyl)-2,6-diazaspiro[3.4]octane-8-carboxamide]"
3,> 10000,"CNC(=O)[C@@H](NC(=O)[C@@H]1CN(C(=O)Nc2cnn(Cc3ccccc3)c2)CC12CN(C(=O)[C@H]1CC1(C)C)C2)[C@@H](C)OCc1ccccc1 [I-48A, (S)—N6-(1-benzyl-1H-pyrazol-4-yl)-N8-((2S,3R)-3-(benzyloxy)-1-(methylamino)-1-oxobutan-2-yl)-2-((S)-2,2-dimethylcyclopropane-1-carbonyl)-2,6-diazaspiro[3.4]octane-6,8-dicarboxamide]"
4,1000 to 10000,CNC(=O)[C@@H](NC(=O)[C@@H]1CN(C(=O)c2scnc2C(C)(C)C)CC12CN(C(=O)[C@H]1CC1(C)C)C2)[C@@H](C)OCC1CCCCC1 [I-231A]
5,100 to 1000,CC1(C)C[C@@H]1C(=O)N1CC2(CN(C(=O)c3cnn(Cc4ccccc4)c3)C[C@H]2C(=O)N2CCN(CC3CCCCC3)CC2)C1 [I-237]
6,> 10000,CNC(=O)[C@@H](NC(=O)[C@H]1CN(C(=O)c2sc(C(C)C)nc2C)CC12CN(C(=O)[C@H]1CC1(C)C)C2)[C@@H](C)OCC1CCCCC1 [I-227B]
7,≤ 10,COC[C@H]1CCCN(C(=O)[C@@H](NC(=O)[C@@H]2CN(C(=O)c3cncs3)CC23CN(C(=O)[C@H]2CC2(C)C)C3)[C@@H](C)OCc2cccc(F)c2)C1 [I-322]
8,100 to 1000,CNC(=O)[C@@H](NC(=O)[C@@H]1CN(C(=O)c2cnn(Cc3ccccc3)c2)CC12CN(C(=O)CC1CC1)C2)[C@@H](C)OCC1CCCCC1 [I-56A]
9,> 10000,CNC(=O)[C@@H](NC(=O)[C@H]1CN(Cc2cccnc2)CC12CN(C(=O)[C@H]1CC1(C)C)C2)[C@@H](C)OCc1ccccc1 [I-49B]
10,10 to 100,CC1(C)C[C@@H]1C(=O)N1CC2(CN(C(=O)c3cncs3)C[C@H]2C(=O)NCc2cccc(C3CCCCC3)n2)C1 [I-414]
11,> 10000,CNC(=O)[C@@H](NC(=O)[C@H]1CN(C(=O)c2scnc2C(F)(F)F)CC12CN(C(=O)[C@H]1CC1(C)C)C2)[C@@H](C)OCC1CCCCC1 [I-163B]
12,≤ 10,C[C@@H](OCC1CCCCC1)[C@H](NC(=O)C1CN(C(=O)c2cnn(Cc3ccccc3)c2)CC12CN(C(=O)[C@H]1CC1(C)C)C2)C(=O)N1CC(C)(C)C1 (stereo partly shown) [I-153 mixture]
13,≤ 10,CCOC(=O)C(C)(C)CNC(=O)[C@@H](NC(=O)[C@@H]1CN(C(=O)c2cnn(Cc3ccccc3)c2)CC12CN(C(=O)[C@H]1CC1(C)C)C2)[C@@H](C)OCC1CCCCC1 [I-473]
14,> 10000,CO[C@H]1COCC[C@H]1NC(=O)[C@H]1CN(C(=O)c2cnn(Cc3ccccc3)c2)CC12CN(C(=O)[C@H]1CC1(C)C)C2 [I-134B]
15,> 10000,CNC(=O)[C@@H](NC(=O)[C@H]1CN(Cc2cncs2)CC12CN(C(=O)[C@H]1CC1(C)C)C2)[C@@H](C)OCc1ccccc1 [I-51B]
16,100 to 1000,CNC(=O)[C@@H](NC(=O)[C@H]1CN(C(=O)c2scnc2Cl)CC12CN(C(=O)[C@H]1CC1(C)C)C2)[C@@H](C)OCC1CCCCC1 [I-157B]
17,10 to 100,CNC(=O)[C@@H](NC(=O)[C@@H]1CN(C(=O)c2cncs2)CC12CN(C(=O)[C@H]1CC1(C)C)C2)[C@@H](C)OC1CC2CCC1CC2 (stereo partly shown) [I-464]
18,100 to 1000,C[C@@H](OCc1ccccc1)[C@H](NC(=O)C1CN(C(=O)c2cnn(Cc3ccccc3)c2)CC12CN(C(=O)[C@H]1CC1(C)C)C2)C(=O)NCC#CCN (stereo partly shown) [I-28]
19,≤ 10,COC[C@H]1CCCN(C(=O)[C@@H](NC(=O)[C@@H]2CN(C(=O)c3cncs3)CC23CN(C(=O)C(C)(C)C2CC2)C3)[C@@H](C)OCC2CCCCC2)C1 [I-389]
20,10 to 100,CNC(=O)[C@@H](NC(=O)[C@@H]1CN(C(=O)c2cncs2)CC12CN(C(=O)[C@H]1CC1(C)C)C2)[C@@H](C)OCC12CCC(CC1)OC2 [I-342]
21,1000 to 10000,CNC(=O)[C@@H](NC(=O)[C@@H]1CN(C(=O)c2cnn(Cc3ccccc3)c2)CC12CN(C(=O)C(C)C1CC1)C2)[C@@H](C)OCc1ccccc1 (stereo partly shown) [I-277]
22,> 10000,CNC(=O)[C@@H](NC(=O)[C@@H]1CN(C(=O)c2c[nH]c3ccccc23)CC12CN(C(=O)[C@H]1CC1(C)C)C2)[C@@H](C)OCc1ccccc1 [I-72A]
23,≤ 10,COC[C@H]1CCCN(C(=O)[C@@H](NC(=O)[C@@H]2CN(C(=O)c3cncs3)CC23CN(C(=O)[C@H]2CC2(C)C)C3)[C@@H](C)OCc2ccc(Cl)cc2F)C1 [I-317]

row,IC50 [nM],Structure (SMILES)
1,10 to 100,C[C@@H](OCC1CCOCC1)[C@@H](COC1CCC(F)(F)CC1)NC(=O)[C@@H]1CN(C(=O)c2cncs2)CC12CN(C(=O)[C@H]1CC1(C)C)C2 [I-312]
2,> 10000,CNC(=O)[C@@H](NC(=O)[C@@H]1CN(S(=O)(=O)c2cnn(Cc3ccccc3)c2)CC12CN(C(=O)[C@H]1CC1(C)C)C2)[C@@H](C)OCc1ccccc1 [I-79A]
3,> 10000,CNC(=O)[C@@H](NC(=O)[C@@H]1CN(Cc2cncs2)CC12CN(C(=O)[C@H]1CC1(C)C)C2)[C@@H](C)OCc1ccccc1 [I-51A]
4,≤ 10,C[C@@H](OCC12CCC(CC1)OC2)[C@H](NC(=O)[C@@H]1CN(C(=O)c2cncs2)CC12CN(C(=O)[C@H]1CC1(C)C)C2)C(=O)N1CCCC2(COC2)C1 [I-453]
5,10 to 100,CNC(=O)[C@@H](NC(=O)[C@@H]1CN(C(=O)c2cncs2)CC12CN(C(=O)[C@H]1CC1(C)C)C2)C1(OCC2CCCCC2)CC1 [I-401]
6,10 to 100,C[C@@H](OCC1CCCCC1)[C@H](NC(=O)[C@@H]1CN(C(=O)c2cnn(CC(F)(F)F)c2)CC12CN(C(=O)[C@H]1CC1(C)C)C2)C(=O)N1CCCCC1 [I-132]
7,> 10000,CNC(=O)[C@@H](NC(=O)[C@H]1CN(Cc2n[nH]c3ccccc23)CC12CN(C(=O)[C@H]1CC1(C)C)C2)[C@@H](C)OCc1ccccc1 [I-143]
8,100 to 1000,"CNC(=O)[C@@H](NC(=O)[C@@H]1CN(C(=O)c2cnn(Cc3ccccc3)c2)CC12CN(C(=O)N(C)C(C)C)C2)[C@@H](C)OCC1CCCCC1 [I-274, (S)-6-(1-benzyl-1H-pyrazole-4-carbonyl)-N8-((2S,3R)-3-(cyclohexylmethoxy)-1-(methylamino)-1-oxobutan-2-yl)-N2-isopropyl-N2-methyl-2,6-diazaspiro[3.4]octane-2,8-dicarboxamide]"
9,1000 to 10000,CNC(=O)[C@@H](NC(=O)[C@@H]1CN(C(=O)c2cnn(Cc3ccccc3)c2)CC12CN(C(=O)c1ccccc1)C2)[C@@H](C)OCc1ccccc1 [I-26A]
10,100 to 1000,C[C@@H](OCC1(C(F)(F)F)CC1)[C@H](NC(=O)[C@@H]1CN(C(=O)c2cncs2)CC12CN(C(=O)[C@H]1CC1(C)C)C2)C(=O)N1CCCCC1 [I-285]
11,> 10000,Cc1ccc(CNC(=O)[C@H]2CN(C(=O)c3cnn(Cc4ccccc4)c3)CC23CN(C(=O)[C@H]2CC2(C)C)C3)nn1 [I-381]
12,> 10000,CNC(=O)[C@H](COCc1ccccc1)NC(=O)[C@H]1CN(C(=O)c2cnn(Cc3ccccc3)c2)CC12CN(C(=O)C(C)(C)C)C2 [I-100B]
13,≤ 10,CNC(=O)[C@@H](NC(=O)[C@@H]1CN(C(=O)c2cncs2)CC12CN(C(=O)[C@H]1CC1(C)C)C2)[C@@H](C)OCC12CCC(CC1)CC2 [I-289]
14,≤ 10,COC[C@H]1CCCN(C(=O)[C@@H](NC(=O)[C@@H]2CN(C(=O)c3cncs3)CC23CN(C(=O)[C@H]2CC2(C)C)C3)[C@@H](C)OCC2CCC3(CCC3)CC2)C1 [I-390]
15,100 to 1000,C[C@@H](OCC12CCC(CC1)OC2)[C@H](NC(=O)[C@@H]1CN(C(=O)c2cncs2)CC12CN(C(=O)C(C)(C)C1CC1)C2)C(C)(C)O [I-334]
16,100 to 1000,CC1(C)C[C@@H]1C(=O)N1CC2(CN(C(=O)c3cnn(Cc4ccccc4)c3)C[C@H]2C(=O)Nc2ccc(-c3ccccc3)cc2)C1 [I-81A]
17,≤ 10,C[C@@H](OCC1CCCCC1)[C@@H](COC1CCC(F)(F)CC1)NC(=O)[C@@H]1CN(C(=O)c2cnn(Cc3ccccc3)c2)CC12CN(C(=O)[C@H]1CC1(C)C)C2 [I-271]
18,> 10000,CNC(=O)[C@@H](NC(=O)[C@H]1CN(C(=O)c2cnn(Cc3ccccc3)c2)CC12CN(C(=O)[C@H]1CC1(C)C)C2)C(C)(C)SCc1ccccc1 [I-171B]
19,100 to 1000,CNC(=O)C(NC(=O)[C@@H]1CN(C(=O)c2cncs2)CC12CN(C(=O)[C@H]1CC1(C)C)C2)c1ncc(C2CCCCC2)o1 (stereo partly shown) [I-426]
20,≤ 10,"CNC(=O)[C@@H](NC(=O)[C@@H]1CN(C(=O)c2cnn(Cc3ccccc3)c2)CC12CN(C(=O)[C@H]1CC1(C)C)C2)[C@@H](C)OCC1CCCCC1 [I-123A, (S)-6-(1-benzyl-1H-pyrazole-4-carbonyl)-N-((2S,3R)-3-(cyclohexylmethoxy)-1-(methylamino)-1-oxobutan-2-yl)-2-((S)-2,2-dimethylcyclopropane-1-carbonyl)-2,6-diazaspiro[3.4]octane-8-carboxamide]"
21,1000 to 10000,CNC(=O)[C@@H](NC(=O)[C@H]1CN(C(=O)c2cnn(Cc3ccccc3)c2)CC12CN(C(=O)[C@H]1CC1(C)C)C2)[C@@H](C)OCC1(C(F)(F)F)CC1 [I-205B]
22,> 10000,CNC(=O)[C@@H](NC(=O)[C@@H]1CN(C(=O)c2scnc2C(F)(F)F)CC12CN(C(=O)[C@H]1CC1(C)C)C2)[C@@H](C)OCC1CCCCC1 [I-163A]
23,10 to 100,C[C@@H](OCc1ccccc1)[C@H](NC(=O)C1CN(C(=O)c2cnn(Cc3ccccc3)c2)CC12CN(C(=O)[C@H]1CC1(C)C)C2)C(=O)NCCO (stereo partly shown) [I-30]
